The source made the active and inactive calls. The calls are words filed in the database; no cut-off is given here.

Results on two compounds are retold here after ChEMBL document CHEMBL3621055, “Mechanism of forming trimer, self-assembling nano-particle and inhibiting tumor growth of small molecule CIPPCT” (Medchemcomm, 2014).

In series [1] the test system is CCRF S-180. The experiment in a line: Antitumor activity against mouse S180 cells allografted in ICR mouse assessed as tumor growth inhibition at 2 umol/kg, ip qd for 7 days measured 24 hrs after last dose. It is filed as functional, organism-based.
The next series concerns HeLa. The series can be described thus: Cytotoxicity against human HeLa cells after 48 hrs by MTT assay. The series is classed as functional, cell-based. In general terms: Tetrazolium assays rely on reduction of a dye to a coloured formazan, in cell work by metabolically active cells.
The test system of a further series is SW480. The series can be described thus: Cytotoxicity against human SW480 cells after 48 hrs by MTT assay. It is filed as functional, cell-based. The following applies: SW480, 48 h.
Series [2] has as its system HepG2. The series can be described thus: Cytotoxicity against human HepG2 cells after 48 hrs by MTT assay. It is filed as functional, cell-based. As to conditions: HepG2, 48 h.
Another series concerns HT-29. The experiment in a line: Cytotoxicity against human HT-29 cells after 48 hrs by MTT assay. The series is classed as functional, cell-based. The following applies: HT-29, 48 h.
A further series concerns HL-60. The experiment in a line: Cytotoxicity against human HL60 cells after 48 hrs by MTT assay. The following applies: HL-60, 48 h. It is filed as functional, cell-based.
In series [3] the test system is CCRF S-180. The experiment in a line: Antitumor activity against mouse S180 cells allografted in ICR mouse assessed as tumor growth inhibition administered as po qd for 7 days measured 24 hrs after last dose. It is filed as functional.
In series [4] the test system is CCRF S-180. The series can be described thus: Antitumor activity against mouse S180 cells allografted in ICR mouse assessed as tumor growth inhibition at 4 umol/kg, po qd for 7 days measured 24 hrs after last dose. It is filed as functional, organism-based.
The test system of series [5] is CCRF S-180. The experiment in a line: Antitumor activity against mouse S180 cells allografted in ICR mouse assessed as decrease of uPA levels in serum administered as po qd for 7 days measured 24 hrs after last dose. The series is classed as functional, organism-based.
For series [6], the system named is HepG2. The series can be described thus: Drug uptake in human HepG2 cells at 10^-10 M after 15 to 240 mins by fluorescence assay. The series is classed as ADME, cell-based. As to conditions: hepg2, 0.0001 µM.

As for `COc1cccc2c1C(=O)c1c(O)c3c(c(O)c1C2=O)C[C@@](O)(C(=O)CO)C[C@@H]3O[C@H]1C[C@H](N)[C@H](O)[C@H](C)O1`, the inhibition result in the series with CCRF S-180 [1] was “Active”.

In the case of `C[C@H](O)[C@H](NC(=O)[C@H](Cc1c[nH]c2ccccc12)NCC[C@H]1c2[nH]c3ccccc3c2C[C@H]2C(=O)N3CCC[C@H]3C(=O)N21)C(=O)OCc1ccccc1`, the IC50 (in general, the point on the concentration scale where inhibition reaches its midpoint) with HeLa is more than 100 µM; in the series on SW480, more than 100 µM; in the series with HepG2 [2], more than 60 µM; in the series with HT-29 it was more than 20 µM; in the series with HL-60, more than 10 µM. For the same compound, the MED in the series on CCRF S-180 [3] turned out to be 0.16 µmol/kg. Moreover, the inhibition result in the series on CCRF S-180 [3] was “Dose-dependent effect”. Besides, in the series with CCRF S-180 [4], the inhibition entry was “Active”. In the series with CCRF S-180 [5], the Activity entry was “Dose-dependent effect”. Moreover, the Drug uptake entry with HepG2 [6] is on record as “Active”.
